These results are taken from US20100284924A1, “NANO-DEVICES HAVING IMPELLERS FOR CAPTURE AND RELEASE OF MOLECULES” (The Regents of the University of California, priority 2009, published 2010).

Assay [1] deals with PANC-1 cancer cells. The experiment in a line: Cell death assay, propidium iodide/Hoechst 33342 double-staining, confocal imaging. Conditions: CPT suspended in PBS, not in particles. The class given is cell-based, human. On the procedure: FIGS. 9A-9C show light-triggered delivery of the anticancer drug camptothecin (CPT) inside PANC-1 cancer cells to induce apoptosis according to an embodiment of the current invention, CPT molecules were loaded into the pores of the LAMS and a homogeneous suspension of the CPT-loaded particles (10 μg/ml) was added to the cells which were incubated in Lab-Tek chamber slides for 3 hrs in dark. The cells were then irradiated under ˜0.1 W/cm^2, 413 nm light for 1 to 10 min, again incubated in the dark for 48 hours, and double-stained with propidium iodide/Hoechst 33342 solution (1:1). FIG. 9A. CPT-loaded particles were incubated with cancer cells and illuminated for 1 (a), 3 (b), 5 (c) or 10 min (d, e, f). FIG. 9B. […]
Cell Death Assay: Cell death was also examined by using the propidium iodide and Hoechst 33342 double-staining method. The cells incubated on a Lab-Tek chamber slide system were stained with propidium iodide/Hoechst 33342 (1:1) for 5 min after treatment with CPT-loaded LAMS or free LAMS followed by light irradiation, and then examined with fluorescence microscopy. […] The absorbance of each well was measured at 450 nm with a plate reader. Since the absorbance is proportional to the number of viable cells in the medium, the viable cell number was determined by using a previously prepared calibration curve (Dojindo Co.).

Assay [2] has as its system PANC-1 cancer cells. As to the kind of experiment: Photocontrolled staining of cell nuclei by released PI, confocal microscopy. The class given is cell-based, human. Conditions: free PI not loaded into the particles. The method, then: FIGS. 8A-8C show confocal microscope images of the photocontrolled staining of the nuclei of PANC-1 cancer cells. Plasma membrane impermeable propidium iodide (PI) molecules were loaded in the pores of LAMS and the dye loaded particles were incubated with the cells for 3 hours in the dark. The cells were then exposed to the activation beam for 1 to 10 min. After further incubation in the dark for 10 min, the cells were examined with confocal microscopy ([…]) FIG. 8A. Cells incubated with the PI-loaded LAMS and illuminated for 0 (a), 1 (b), 3 (c), or 5 min (f) under a constant ˜0.2 W/cm^2, 413 nm light or with different light intensities (˜0.01 (d) or ˜0.1 W/cm^2 (e) for 5 min at a 413 nm light). FIG. 8B. PANC-1 cells incubated with the PI-loaded LAMS (g), free PI molecules (h), or empty LAMS (i) were kept in the dark and exposed to a 413 nm light. FIG. 8C. Cells incubated with the PI-loaded LAMS were illuminated with ˜0.2 W/cm^2, 676 nm light for 0 (j), 1 (k) or 5 min (l). Scale bar: 30 μm.
Based on the successful operation of the impeller in water, in vitro studies were carried out on two human cancer cell lines (PANC-1 and SW480). To detect the photo-responsive behavior of the impellers inside of cells, a membrane-impermeable dye, PI was chosen as the fluorescent probe molecule and loaded into the particles following the same procedure as that used for the Rhodamine B loading. […]

Take `CC[C@@]1(O)C(=O)OCc2c1cc1n(c2=O)Cc2cc3ccccc3nc2-1` [CPT, camptothecin]: in the assay with PANC-1 cancer cells [1], the cell killing result was “did not kill the cells”. With `CC[N+](C)(CC)CCC[n+]1c(-c2ccccc2)c2cc(N)ccc2c2ccc(N)cc21.[I-].[I-]` [PI, propidium iodide], the “cell staining (cell entry)” value with PANC-1 cancer cells [2] was “cell staining did not occur”.
